Read-outs that look alike come from different tables or passages of the source.
Legend:
[1] = tested on: E. coli 29838; experiment: MIC with cefepime, agar microdilution, CLSI; assay type: cell-based; settings: compound fixed at 4 ug/ml; CTX-M-14, TEM-1
Protocol: (§1) Minimum inhibitory concentration (MIC) of MB076 and derivatives (PCF_038-043) in combination with cefepime.
(§2) MICs were determined by the Agar microdilution method, following CLSI guidelines. Compounds were tested at fixed concentration of 4 ug/ml in combination with cefepime.

[2] = tested on: E. coli ATCC BAA202; experiment: MIC with cefepime, agar microdilution, CLSI; assay type: cell-based; settings: compound fixed at 4 ug/ml; SHV-1
Protocol: as §1, §2

[3] = tested on: E. coli DH10B pBC-SK KPC-2; experiment: MIC with cefepime, agar microdilution, CLSI; assay type: cell-based; settings: compound fixed at 4 ug/ml
Protocol: as §1, §2

[4] = tested on: E. coli DH10B pBC-SK P99; experiment: MIC with cefepime, agar microdilution, CLSI; assay type: cell-based; settings: compound fixed at 4 ug/ml
Protocol: as §1, §2

[5] = tested on: E. coli DH10B pBC-SK PDC-3; experiment: MIC with cefepime, agar microdilution, CLSI; assay type: cell-based; settings: compound fixed at 4 ug/ml
Protocol: as §1, §2

[6] = tested on: E. coli DH10B pBC-SK SHV-2; experiment: MIC with cefepime, agar microdilution, CLSI; assay type: cell-based; settings: compound fixed at 4 ug/ml
Protocol: as §1, §2

[7] = tested on: E. coli DH10B pBC-SK control; experiment: MIC with cefepime, agar microdilution, CLSI; assay type: cell-based; settings: compound fixed at 4 ug/ml; B-lactamases none
Protocol: as §1, §2

[8] = tested on: E. coli pLTCF1; experiment: MIC with cefepime, agar microdilution, CLSI; assay type: cell-based; settings: compound fixed at 4 ug/ml; CTX-M group 9
Protocol: as §1, §2

[9] = tested on: E. coli pLTCF2; experiment: MIC with cefepime, agar microdilution, CLSI; assay type: cell-based; settings: compound fixed at 4 ug/ml
Protocol: as §1, §2

[10] = tested on: K. pneumoniae 253; experiment: MIC with cefepime, agar microdilution, CLSI; assay type: cell-based; settings: compound fixed at 4 ug/ml; TEM-12, SHV-5, CTX-M
Protocol: as §1, §2

[11] = tested on: K. pneumoniae 255; experiment: MIC with cefepime, agar microdilution, CLSI; assay type: cell-based; settings: compound fixed at 4 ug/ml; TEM-1, SHV-2
Protocol: as §1, §2

[12] = tested on: K. pneumoniae 34700; experiment: MIC with cefepime, agar microdilution, CLSI; assay type: cell-based; settings: compound fixed at 4 ug/ml; CTX-M-15, SHV, TEM
Protocol: as §1, §2

[13] = tested on: K. pneumoniae 427; experiment: MIC with cefepime, agar microdilution, CLSI; assay type: cell-based; settings: compound fixed at 4 ug/ml; TEM-1, SHV-1, CTX-M-3
Protocol: as §1, §2

[14] = tested on: K. pneumoniae ST17; experiment: MIC with cefepime, agar microdilution, CLSI; assay type: cell-based; settings: compound fixed at 4 ug/ml; KPC-2, TEM, SHV, CTX-M-Group 1
Protocol: as §1, §2

[15] = tested on: K. pneumoniae ST258 B5; experiment: MIC with cefepime, agar microdilution, CLSI; assay type: cell-based; settings: compound fixed at 4 ug/ml; KPC-2
Protocol: as §1, §2

[16] = tested on: K. pneumoniae ST258 C3; experiment: MIC with cefepime, agar microdilution, CLSI; assay type: cell-based; settings: compound fixed at 4 ug/ml; KPC-3
Protocol: as §1, §2

[17] = tested on: K. pneumoniae original KPC-2; experiment: MIC with cefepime, agar microdilution, CLSI; assay type: cell-based; settings: compound fixed at 4 ug/ml
Protocol: as §1, §2

[18] = Single dose IV PK in plasma and thigh homogenate, thigh infection model; assay type: in vivo, mice; settings: for AUC(0-inf) / AUC(0-t) / C0 / clearance / half-life / Vd: female, ICR, mouse; for Vd: read-out: Vss
Protocol: (§3) A single dose PK study with MB_076 has been conducted to evaluate antibiotic exposure over time in plasma samples and thigh homogenates following a single dose IV administration in K. pneumoniae AR-BANK #0098 (KPC-2) thigh infection model with neutropenic female ICR mice. Among the PK parameters, t1/2, C0, AUClast, AUCINF, Vss and CL were evaluated (Table 7), while for PD parameters, C0/MIC, AUClast/MIC and T>MIC were calculated (Table 8). In particular, the % time over the minimum inhibitory concentration (T>MIC) was calculated for all dose groups to determine the impact of MB076 efficacy in this animal model. Plots of concentration in plasma and thigh homogenate versus time were created and the linearity of the resulting PK parameters was assessed.

[19] = tested on: K. pneumoniae AR-BANK #0098 (KPC-2); assay type: in vivo; settings: for T > MIC / Time High / Time Low: female, ICR, mouse, in vivo, iv
Protocol: as §3

[20] = plasma, 12.5 mg/kg IV single dose
[21] = plasma, 25 mg/kg IV single dose
[22] = plasma, 50 mg/kg IV single dose
[23] = plasma, 100 mg/kg IV single dose
[24] = thigh homogenate, 12.5 mg/kg IV single dose
[25] = thigh homogenate, 25 mg/kg IV single dose
[26] = thigh homogenate, 50 mg/kg IV single dose
[27] = thigh homogenate, 100 mg/kg IV single dose

Structure (SMILES): Nc1nnc(SCC(=O)NC(Cn2cc(C(=O)O)nn2)B(O)O)s1 (centres unmarked) [MB076]
- MIC of cefepime in combination with compound [1]: < 0.25 µg/mL
- MIC of cefepime in combination with compound [2]: < 0.25 µg/mL
- MIC of cefepime in combination with compound [3]: < 0.25 µg/mL
- MIC of cefepime in combination with compound [4]: < 0.25 µg/mL
- MIC of cefepime in combination with compound [5]: < 0.25 µg/mL
- MIC of cefepime in combination with compound [6]: < 0.25 µg/mL
- MIC of cefepime in combination with compound [7]: < 0.25 µg/mL
- MIC of cefepime in combination with compound [8]: < 0.25 µg/mL
- MIC of cefepime in combination with compound [9]: < 0.25 µg/mL
- MIC of cefepime in combination with compound [10]: 8 µg/mL
- MIC of cefepime in combination with compound [11]: 2 µg/mL
- MIC of cefepime in combination with compound [12]: 1 µg/mL
- MIC of cefepime in combination with compound [13]: < 0.25 µg/mL
- MIC of cefepime in combination with compound [14]: 16 µg/mL
- MIC of cefepime in combination with compound [15]: 8 µg/mL
- MIC of cefepime in combination with compound [16]: 1 µg/mL
- MIC of cefepime in combination with compound [17]: < 0.25 µg/mL
- AUC(0-inf) [18, 20]: 7200 ng·h/mL
- AUC(0-t) [18, 20]: 7100 ng·h/mL
- C0 [18, 20]: 35.6 µg/mL
- clearance [18, 20]: 29.1 mL/min/kg
- half-life [18, 20]: 33.6 min
- Vd [18, 20]: 0.65 L/kg
- AUC(0-inf) [18, 21]: 17800 ng·h/mL
- AUC(0-t) [18, 21]: 17600 ng·h/mL
- C0 [18, 21]: 84 µg/mL
- clearance [18, 21]: 23.4 mL/min/kg
- half-life [18, 21]: 36.6 min
- Vd [18, 21]: 0.8 L/kg
- AUC(0-inf) [18, 22]: 39100 ng·h/mL
- AUC(0-t) [18, 22]: 39000 ng·h/mL
- C0 [18, 22]: 207 µg/mL
- clearance [18, 22]: 21.3 mL/min/kg
- half-life [18, 22]: 25.8 min
- Vd [18, 22]: 0.35 L/kg
- AUC(0-inf) [18, 23]: 104000 ng·h/mL
- AUC(0-t) [18, 23]: 103000 ng·h/mL
- C0 [18, 23]: 638 µg/mL
- clearance [18, 23]: 16.1 mL/min/kg
- half-life [18, 23]: 25.8 min
- Vd [18, 23]: 0.21 L/kg
- AUC(0-inf) [18, 24]: 1000 ng·h/mL
- AUC(0-t) [18, 24]: 1000 ng·h/mL
- C0 [18, 24]: 6.3 µg/mL
- half-life [18, 24]: 14.4 min
- Vd [18, 24]: 2.96 L/kg
- AUC(0-inf) [18, 25]: 1800 ng·h/mL
- AUC(0-t) [18, 25]: 1700 ng·h/mL
- C0 [18, 25]: 17 µg/mL
- half-life [18, 25]: 6.6 min
- Vd [18, 25]: 1.38 L/kg
- AUC(0-inf) [18, 26]: 6300 ng·h/mL
- AUC(0-t) [18, 26]: 6300 ng·h/mL
- C0 [18, 26]: 34 µg/mL
- half-life [18, 26]: 12.6 min
- Vd [18, 26]: 1.76 L/kg
- AUC(0-inf) [18, 27]: 17300 ng·h/mL
- AUC(0-t) [18, 27]: 17200 ng·h/mL
- C0 [18, 27]: 108 µg/mL
- half-life [18, 27]: 15 min
- Vd [18, 27]: 1.07 L/kg
- Linearity of C0 and AUClast with dose ([18]; plasma and thigh homogenates, 12.5-100 mg/kg IV): correlated linearly with dose
- T > MIC ([19]; 12.5 mg/kg): 1.69%
- Time High ([19]; 12.5 mg/kg): 0.40 h
- Time Low ([19]; 12.5 mg/kg): 23.60 h
- T > MIC ([19]; 12.5 mg/kg, 24 h): 0.24%
- Time High ([19]; 12.5 mg/kg, 24 h): 0.06 h
- Time Low ([19]; 12.5 mg/kg, 24 h): 23.94 h
- T > MIC ([19]; 50 mg/kg): 1.75%
- Time High ([19]; 50 mg/kg): 0.42 h
- T > MIC ([19]; 50 mg/kg, 24 h): 3.89%
- Time High ([19]; 50 mg/kg, 24 h): 0.93 h
- T > MIC ([19]; 100 mg/kg): 2.72%
- Time High ([19]; 100 mg/kg): 0.65 h
- Time Low ([19]; 100 mg/kg): 23.35 h
- T > MIC ([19]; 100 mg/kg, 24 h): 4.51%
- Time High ([19]; 100 mg/kg, 24 h): 1.08 h
- Time Low ([19]; 100 mg/kg, 24 h): 22.92 h
- AUClast/MIC ([19]; plasma, 12.5 mg/kg IV): 1.77 h
- AUClast/MIC ([19]; plasma, 25 mg/kg IV): 4.41 h
- AUClast/MIC ([19]; plasma, 50 mg/kg IV): 9.75 h
- AUClast/MIC ([19]; plasma, 100 mg/kg IV): 25.81 h
- AUClast/MIC ([19]; thigh, 12.5 mg/kg IV): 0.25 h
- AUClast/MIC ([19]; thigh, 25 mg/kg IV): 0.43 h
- AUClast/MIC ([19]; thigh, 50 mg/kg IV): 1.56 h
- AUClast/MIC ([19]; thigh, 100 mg/kg IV): 4.30 h

From patent US20250340577A1, “BETA-LACTOMASE INHIBITORS AND USES THEREOF” (Case Western Reserve University, priority 2021, published 2025)
